According to US4904667A, “1H-1,2,4-thiadiazolo(3,4-b)quinazolin-5-one-2,2-dioxides, and a method for increasing the cardiac output of a mammal with them” (Ortho Pharmaceutical Corporation, priority 1989, dated 1990):
Like-named read-outs stand apart in the source and are kept apart here.

Experiments:
[1] = tested on: dog tracheal smooth muscle; experiment: Procedure II: Inhibition of calcium dependent smooth muscle contraction (KCl-challenged dog tracheal rings); details: Canis lupus familiaris, 50 mM KCl contraction, dog trachea
Description: INHIBITION OF CALCIUM DEPENDENT SMOOTH MUSCLE CONTRACTION
Farley, J. M. and Miles, P. R. The Sources of Calcium for Acetylcholine-Induced Contractions of Dog Tracheal Smooth Muscle. J. Pharmacol. Exp. Ther. 207: 340-346,l 1978.
Canines, guinea pigs and rabbits
Trachea from dogs killed by excess KCl injection are stored overnight at 4° C. in oxygenated Krebs-Henseleit buffer. Tracheal rings, one cartilage segment wide (5-10 mm), are cut starting from the bronchial end. After cutting the cartilage, the trachealis muscle tissue is suspended in oxygenated Krebs-Henseleit buffer at 37° C. in a 25 ml tissue bath. After a 60 minutes equilibration period, the tissues are challenged with 10 μM carbachol. After 5 minutes the tissues are rinsed and allowed to rest 50 minutes. The tissues are then challenged with 50 mM KCl and, after 30 minutes, the contractions are quantitated. The tissues are then rinsed and reequilibrated for 50 minutes. Test compounds are then added for 10 minutes, and the tissue is rechallenged with 50 mM KCl. After 30 minutes, the contraction is recorded and used to determine the % inhibition of control.
The percent inhibition of smooth muscle contraction is calculated from response data before and after drug treatment. [formula]

[2] = molecular target: cyclic nucleotide phosphodiesterase fraction III; experiment: Procedure I: Cyclic Nucleotide Phosphodiesterase Assay; type: biochemical
Dog = experiment: Procedure III: Acute In Vivo Cardiotonic Evaluation (cardiac force in anesthetized dogs); details: for Procedure III % Change CF (cardiac force): dose 1.9 mpk, i.v., anesthetized dog, vs pretreatment control
Description: Acute In Vivo Cardiotonic Evaluation
Cardiotonic Activity of Amrinone-Win 40680. Alousi, A. A., Farah, A. I., Lester, G. Y. and Opalka, C. J. Circ. Res. 45:666, 1979.
Adult mongrel dogs are anesthetized with sodium pentobarbital and artifically respired. Arterial pressure is recorded via a femoral artery and the pressure pulse is used to trigger a cardiotachometer for heart rate. Left ventricular pressure is measured with a Millar catheter and dP/dt is derived. Cardiac output is determined by measuring ascending aortic blood flow with an electromagnetic flow probe and myocardial contractile force is measured with a Walton Brodie strain gauge sutured to the right ventricle. Lead II EKG is also recorded.
A standard dose of dopamine or dobutamine is administered to assess myocardial responsiveness.
Test compounds are administered by i.v. infusion or bolus administration and the effects on cardiovascular parameters are determined.
Dose related effects of the test compound on blood pressure, heart rate, dP/dt max. (dp/dt represents the rate at which blood pressure rises), cardiac force, and cardiac output are compared to pretreatment control values, expressed as a % change and rated for activity. Statistical evaluations are made using the appropriate parametric test against a vehicle control.

[3] = concentration inhibiting 50% of cyclic nucleotide phosphodiesterase activity, cyclic AMP substrate, pH 7.4, read-out: Procedure I IC50

Compound	inhibition at 10 µM [1]	IC50 [2, 3]	Procedure III % Change CF (cardiac force) (Dog)	inhibition at 2 µM [1]	IC50 ([2]; fraction III, read-out: IC50 versus cyclic nucleotide phosphodiesterase fraction III)	cardiac force increased (Dog; dog, intravenously at 1.9 mg/kg)
O=c1c2cc([N+](=O)[O-])ccc2nc2n1CS(=O)(=O)N2 [Example 2, 7-Nitro-1H-1,2,4-thiadiazolo[3,4-b]quinazolin-5-one-2,2-dioxide]	9%					
COc1cc2nc3n(c(=O)c2cc1OC)CS(=O)(=O)N3 [Example 3, 7,8-Dimethoxy-1H-1,2,4-thiadiazolo[3,4-b]quinazolin-5-one-2,2-dioxide]		35 µM	8%	13%		
COc1ccc2nc3n(c(=O)c2c1OC)CS(=O)(=O)N3 [Example 4, 6,7-Dimethoxy-1H-1,2,4-thiadiazolo[3,4-b]quinazolin-5-one-2,2-dioxide]			22%	43%		
O=c1c2cc(Cl)c(Cl)cc2nc2n1CS(=O)(=O)N2 [Example 5, 7,8-Dichloro-1H-1,2,4-thiadiazolo[3,4-b]quinazolin-5-one-2,2-dioxide]				11%		
O=c1c2cc(Cl)ccc2nc2n1CS(=O)(=O)N2 [Example 6, 7-Chloro-1H-1,2,4-thiadiazolo[3,4-b]quinazolin-5-one-2,2-dioxide]	18%	70 µM				
O=c1c2ccc(Cl)cc2nc2n1CS(=O)(=O)N2 [Example 7, 8-Chloro-1H-1,2,4-thiadiazolo[3,4-b]quinazolin-5-one-2,2-dioxide]	31%	150 µM				
O=c1c2ccccc2nc2n1CS(=O)(=O)N2 [Example 8, 1H-1,2,4-Thiadiazolo[3,4-b]quinazolin-5-one-2,2-dioxide]	20%	150 µM				
CN(C(=O)CCCOc1ccc2nc3n(c(=O)c2c1)CS(=O)(=O)N3)C1CCCCC1 [Example 9, 7-(N-Cyclohexyl-N-methyl-4-amino-4-oxobutyloxy)-1H-1,2,4-thiadiazolo[3,4-b]quinazolin-5-one-2,2-dioxide]		13 µM	37%		13 µM	37%
